Test results: PubChem BioAssay AID1963834 (Molecular Pharmacology Branch, DTP, NCI, 2024)

System: 873145-292-R-J1-PDC complex spheroid viability
Experiment: Anticancer human tumor 873145-292-R-J1-PDC patient-derived renal clear cell carcinoma cell line growth inhibition [POLQ]
Details: for IC50: curve of first compound; for viability, T/C: stronger effect = lower value
Method in brief: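 Growth inhibition in 3D: complex spheroids (tumor PDC, HUVEC, MSC) treated with POLQ inhibitor combinations; where Cmax unknown, highest tested concentration 10 microM, except SN-38 at 1 microM.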

[1] = second compound 0.0316 µM, first compound 0.0316 µM
[2] = second compound 0.0316 µM, first compound 0.1 µM
[3] = second compound 0.0316 µM, first compound 0.316 µM
[4] = second compound 0.0316 µM, first compound 1 µM
[5] = second compound 0.0316 µM, first compound 3.16 µM
[6] = second compound 0.0316 µM, first compound 10 µM
[7] = second compound 0.1 µM, first compound 0.0316 µM
[8] = second compound 0.1 µM, first compound 0.1 µM
[9] = second compound 0.1 µM, first compound 0.316 µM
[10] = second compound 0.1 µM, first compound 1 µM
[11] = second compound 0.1 µM, first compound 3.16 µM
[12] = second compound 0.1 µM, first compound 10 µM
[13] = second compound 0.316 µM, first compound 0.0316 µM
[14] = second compound 0.316 µM, first compound 0.1 µM
[15] = second compound 0.316 µM, first compound 0.316 µM
[16] = second compound 0.316 µM, first compound 1 µM
[17] = second compound 0.316 µM, first compound 3.16 µM
[18] = second compound 0.316 µM, first compound 10 µM
[19] = second compound 1 µM, first compound 0.0316 µM
[20] = second compound 1 µM, first compound 0.1 µM
[21] = second compound 1 µM, first compound 0.316 µM
[22] = second compound 1 µM, first compound 1 µM
[23] = second compound 1 µM, first compound 3.16 µM
[24] = second compound 1 µM, first compound 10 µM
[25] = second compound 3.16 µM, first compound 0.0316 µM
[26] = second compound 3.16 µM, first compound 0.1 µM
[27] = second compound 3.16 µM, first compound 0.316 µM
[28] = second compound 3.16 µM, first compound 1 µM
[29] = second compound 3.16 µM, first compound 3.16 µM
[30] = second compound 3.16 µM, first compound 10 µM
[31] = second compound 10 µM, first compound 0.0316 µM
[32] = second compound 10 µM, first compound 0.1 µM
[33] = second compound 10 µM, first compound 0.316 µM
[34] = second compound 10 µM, first compound 1 µM
[35] = second compound 10 µM, first compound 3.16 µM
[36] = second compound 10 µM, first compound 10 µM
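Also: spheroids exposed to compounds for 7 days before viability readout.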
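For viability, T/C in this document: luminescence signal used as surrogate for viable cell content; 100% = DMSO vehicle control viability.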

CCc1cc2c(N3CCc4c(cc(Cn5ccnc5)cc4-c4cn(C)nc4C(F)(F)F)C3=O)ccnc2c(OC)n1 + COC1C(OC(N)=O)C(O)C(Oc2ccc3c(O)c(NC(=O)c4ccc(O)c(CC=C(C)C)c4)c(=O)oc3c2C)OC1(C)C
IC50 (second compound 0.0316 µM): > 10 µM | IC50 (second compound 0.1 µM): > 10 µM | IC50 (second compound 0.316 µM): > 10 µM | IC50 (second compound 1 µM): > 10 µM | IC50 (second compound 3.16 µM): > 10 µM | IC50 (second compound 10 µM): > 10 µM | viability, T/C [1]: 97.1% | viability, T/C [2]: 96.5% | viability, T/C [3]: 98.2% | viability, T/C [4]: 97.9% | viability, T/C [5]: 86.8% | viability, T/C [6]: 79.6% | viability, T/C [7]: 106% | viability, T/C [8]: 101% | viability, T/C [9]: 87.7% | viability, T/C [10]: 81.5% | viability, T/C [11]: 82% | viability, T/C [12]: 85% | viability, T/C [13]: 107% | viability, T/C [14]: 90.1% | viability, T/C [15]: 86.4% | viability, T/C [16]: 98.7% | viability, T/C [17]: 96.6% | viability, T/C [18]: 83.2% | viability, T/C [19]: 94.1% | viability, T/C [20]: 92.4% | viability, T/C [21]: 86.7% | viability, T/C [22]: 104% | viability, T/C [23]: 84.3% | viability, T/C [24]: 74.4% | viability, T/C [25]: 103% | viability, T/C [26]: 98.7% | viability, T/C [27]: 96.5% | viability, T/C [28]: 91.8% | viability, T/C [29]: 82.4% | viability, T/C [30]: 91.4% | viability, T/C [31]: 88.4% | viability, T/C [32]: 97.5% | viability, T/C [33]: 87% | viability, T/C [34]: 86.2% | viability, T/C [35]: 85.1% | viability, T/C [36]: 78.2%

COc1cc2cc(C(=O)CCC(=O)O)sc2cc1OC + COC1C(OC(N)=O)C(O)C(Oc2ccc3c(O)c(NC(=O)c4ccc(O)c(CC=C(C)C)c4)c(=O)oc3c2C)OC1(C)C
IC50 (second compound 0.0316 µM): > 10 µM | IC50 (second compound 0.1 µM): > 10 µM | IC50 (second compound 0.316 µM): > 10 µM | IC50 (second compound 1 µM): > 10 µM | IC50 (second compound 3.16 µM): > 10 µM | IC50 (second compound 10 µM): > 10 µM | viability, T/C [1]: 106% | viability, T/C [2]: 93.8% | viability, T/C [3]: 106% | viability, T/C [4]: 101% | viability, T/C [5]: 91.8% | viability, T/C [6]: 94.3% | viability, T/C [7]: 105% | viability, T/C [8]: 97.7% | viability, T/C [9]: 94.7% | viability, T/C [10]: 91.7% | viability, T/C [11]: 108% | viability, T/C [12]: 102% | viability, T/C [13]: 107% | viability, T/C [14]: 93.8% | viability, T/C [15]: 94.7% | viability, T/C [16]: 89.8% | viability, T/C [17]: 97.6% | viability, T/C [18]: 94.2% | viability, T/C [19]: 108% | viability, T/C [20]: 87.4% | viability, T/C [21]: 109% | viability, T/C [22]: 100% | viability, T/C [23]: 102% | viability, T/C [24]: 92.1% | viability, T/C [25]: 103% | viability, T/C [26]: 104% | viability, T/C [27]: 89% | viability, T/C [28]: 95.1% | viability, T/C [29]: 100% | viability, T/C [30]: 98.1% | viability, T/C [31]: 93.4% | viability, T/C [32]: 88.2% | viability, T/C [33]: 94.5% | viability, T/C [34]: 97.6% | viability, T/C [35]: 99.2% | viability, T/C [36]: 96.7%

O=C(Nc1ccc(O)c(NS(=O)(=O)c2ccc(F)cc2)c1)c1ccc(-c2ccccc2)cc1 + COC1C(OC(N)=O)C(O)C(Oc2ccc3c(O)c(NC(=O)c4ccc(O)c(CC=C(C)C)c4)c(=O)oc3c2C)OC1(C)C
IC50 (second compound 0.0316 µM): > 10 µM | IC50 (second compound 0.1 µM): > 10 µM | IC50 (second compound 0.316 µM): > 10 µM | IC50 (second compound 1 µM): > 10 µM | IC50 (second compound 3.16 µM): > 10 µM | IC50 (second compound 10 µM): > 10 µM | viability, T/C [1]: 113% | viability, T/C [2]: 99.8% | viability, T/C [3]: 95.7% | viability, T/C [4]: 101% | viability, T/C [5]: 98.5% | viability, T/C [6]: 101% | viability, T/C [7]: 99.9% | viability, T/C [8]: 106% | viability, T/C [9]: 88.9% | viability, T/C [10]: 94.8% | viability, T/C [11]: 97.6% | viability, T/C [12]: 101% | viability, T/C [13]: 105% | viability, T/C [14]: 92.7% | viability, T/C [15]: 96.2% | viability, T/C [16]: 98.6% | viability, T/C [17]: 110% | viability, T/C [18]: 98.1% | viability, T/C [19]: 106% | viability, T/C [20]: 103% | viability, T/C [21]: 91.6% | viability, T/C [22]: 97.2% | viability, T/C [23]: 104% | viability, T/C [24]: 91.1% | viability, T/C [25]: 97.3% | viability, T/C [26]: 94.8% | viability, T/C [27]: 102% | viability, T/C [28]: 92.9% | viability, T/C [29]: 99.2% | viability, T/C [30]: 109% | viability, T/C [31]: 105% | viability, T/C [32]: 95.2% | viability, T/C [33]: 92.5% | viability, T/C [34]: 100% | viability, T/C [35]: 108% | viability, T/C [36]: 108%

COc1cccc2c1C(=O)c1c(O)c3c(c(O)c1C2=O)CC(O)(C(=O)CO)CC3OC1CC(N)C(O)C(C)O1 (stereo not drawn) + Cc1cccc(N(C)C(=O)C2C(O)CCN2c2nc(C)cc(C(F)(F)F)c2C#N)c1
IC50 (second compound 0.0316 µM): 1.44 µM | IC50 (second compound 0.1 µM): 1.4 µM | IC50 (second compound 0.316 µM): 1.35 µM | IC50 (second compound 1 µM): 1.35 µM | IC50 (second compound 3.16 µM): 1.14 µM | IC50 (second compound 10 µM): 0.636 µM | viability, T/C [1]: 87.6% | viability, T/C [2]: 83.7% | viability, T/C [3]: 66.1% | viability, T/C [4]: 71.8% | viability, T/C [5]: 2.96% | viability, T/C [6]: 2.02% | viability, T/C [7]: 92.2% | viability, T/C [8]: 82.5% | viability, T/C [9]: 66.9% | viability, T/C [10]: 68.6% | viability, T/C [11]: 4.68% | viability, T/C [12]: 2.44% | viability, T/C [13]: 96.4% | viability, T/C [14]: 75.1% | viability, T/C [15]: 72.1% | viability, T/C [16]: 66.1% | viability, T/C [17]: 4.5% | viability, T/C [18]: 2.19% | viability, T/C [19]: 95.8% | viability, T/C [20]: 69.7% | viability, T/C [21]: 71.9% | viability, T/C [22]: 66.4% | viability, T/C [23]: 3.11% | viability, T/C [24]: 1.52% | viability, T/C [25]: 91.1% | viability, T/C [26]: 83.5% | viability, T/C [27]: 71.9% | viability, T/C [28]: 57.1% | viability, T/C [29]: 2.19% | viability, T/C [30]: 1.66% | viability, T/C [31]: 84.8% | viability, T/C [32]: 73.3% | viability, T/C [33]: 80.3% | viability, T/C [34]: 30.8% | viability, T/C [35]: 0.94% | viability, T/C [36]: 1.6%
